One series has as its system SCD1. Nature of the series: SCD1 gene expression in adipose tissue of LDLR−/− mice (qPCR). The conditions noted are these: 30 mg/kg IP daily, vs control. The series is classed as in vivo, mouse. The procedure: FIGS. 30A-30E are graphs showing expression of various genes in tissues of HFD-fed LDLR−/− mice following 6 weeks of daily IP administration of MD20 (30 mg/kg) or a vehicle control. Mice were fasted for 5 hours at the conclusion of the experiment, liver and white adipose tissue (“WAT”) samples were collected, and gene expression was measured by qRT-PCR. Expression of glucose transporter 4 (GLUT4; FIG. 30A) and stearoyl-CoA-desaturase 1 (SCD1; FIG. 30B) was measured in adipose tissue, and expression of Glucose-6-phosphatase (G6P; FIG. 30C), Activating Transcription Factor 4 (ATF4; FIG. 30D), and 3-hydroxy-3-methylglutaryl (HMGCS; FIG. 30E) was measured in liver tissue. Data represent mean±SEM; statistical differences were determined using two tailed student's t-test.
Gene expression analyses: Livers and adipose tissue were collected from 5 h-fasted animals and snap-frozen in liquid nitrogen. RNA was isolated from frozen liver tissue using TRIzole (Sigma, UK) and cDNA was synthesized from 1 μg RNA using bioscript cDNA synthesis kit (Bioline, UK), oligo (dT) 18 (SEQ ID NO: 170), and random hexamer primers.
Genes of interest were amplified by quantitative PCR (qPCR) using gene-specific primers and GoTaq qPCR master mix (Promega, Madison, WI, USA).

The next series has as its system LDLR−/− mice. Nature of the series: LDLR−/− mouse model of atherosclerosis. The series is classed as in vivo. The conditions noted are these: 30 mg/kg IP daily. An excerpt: Animals: All animals were housed and tested following European (Directive on the Protection of Animals used for Scientific Purposes, 2010/63/EU) and UK Home Office regulations. Experiments were approved by the University Ethics Board and carried out in accordance with the Animal (Scientific Procedures) Act 1986 and following ARRIVE guidelines. LDLR−/− male mice (~6-7 weeks old) were purchased from Jackson, US. All mice received a high fat/high cholesterol diet (42% fat plus 0.2% cholesterol, #TD.88137, Envigo, US), to induce atherosclerosis phenotype associated with obesity and type 2 diabetes. All mice had ad libitum access to food and water and were kept in a 12 h light/dark cycle.
Treatments: After 8 weeks of high fat/high cholesterol diet feeding, mice were randomized in to control (n=10) or MD20 30 mg/kg (n=9) groups. MD20 compound (30 mg/kg) was administered once daily via intraperitoneal (IP) injection for 7 weeks, whereas control mice received a daily IP injection of vehicle (PBS). MD20 was kept at −20 °C and dissolved in sterile phosphate buffered saline (PBS) freshly every day before the injection. Two mice died during the study and final numbers per group were: control (n=8) and MD20 30 mg/kg (n=9).
Bodyweights and body mass composition: Body weights were recorded during the study, and fat and lean mass composition was analyzed using an EchoMRI scanner (EchoMedical Systems, Houston, TX, U.S.A.).
Metabolic measurements: All animals were 5 h-fasted before metabolic tests. Tail blood glucose was measured using AlphaTRAK 2 glucose strips and glucometer (Abbot, UK).
Glucose and insulin tolerance tests (GTT, ITT) were performed by IP injection of 2 mg/g of glucose (GTT) or 0.6 mU/g insulin (ITT), and glucose levels were measured at 15, 30, 60 and 90 min post-injection.
Serum and liver assays: Trunk-derived blood was collected from 5 h-fasted mice into serum separator microtubes and kept at −80 °C. Serum was used for insulin (#EZRMI-13K, Merck), leptin (#90030, Crystal Chem), free fatty acids (FFA; #mak044, Sigma-Aldrich), cholesterol (#MAK043, Sigma Aldrich), and alanine and aspartate aminotransferase (ALT and AST; ab105134 and ab105135, Abcam) analyses. Serum and liver triglycerides were determined using triglyceride reagents (#T2449, #F6428, #G7793, Sigma Aldrich).
Aortic plaques analyses: Hearts with aortas attached were immersed in formalin and stored at 4 °C for 24 h following dissection, and transferred in to PBS thereafter. Aortas were sub-dissected under microscope and prepared for staining with Oil Red O. Images were captured using a light microscope. Plaque formation was quantified using ImageJ software, and results were expressed as % plaque area.
Statistical analyses: Data were reported as means±SEM and analyzed using one- or two-way ANOVA with Bonferroni post hoc tests, as appropriate. GraphPad Prism (V8, GraphPad Software, Inc., San Diego, California, USA) was used for statistical analyses. P-values <0.05 were considered significant.

Turning to Ac-PRPPKR-NH2 [MD20, Ac-PRPPKR-NH2], the “SCD1 expression in adipose tissue” value with SCD1 is listed as “increased”. Besides, in the series with LDLR−/− mice (vs control), the “% change in fat mass” value is reported as “a trend to ward a decreased % change in fat mass” and the aortic plaque area result was “No statistically significant differences”. Further, in the series with LDLR−/− mice (vs vehicle), the “% change in body weights” value is reported as “significant interaction”, the “body weights during the weeks of treatment” value is given as “significant interaction”, the fat mass content entry was “No statistically significant differences” and the lean mass result is reported as “No significant changes in lean mass”. In addition, in the series on LDLR−/− mice (vs vehicle), the raw body weights entry is reported as “No statistically significant differences”. Further, the “glucose tolerance test (GTT)” value with LDLR−/− mice (2 mg/g glucose) is given as “No statistically significant differences”. Also, the “insulin tolerance test (ITT)” value with LDLR−/− mice (0.6 mU/g insulin) was “not statistically significant, slight improvements could be seen”. For the same substance, in the series on LDLR−/− mice (5 h-fasted), the hepatic triglycerides entry was “No statistically significant differences”, the “serum ALT” value was “No statistically significant differences”, the “serum AST” value was “No statistically significant differences” and the serum cholesterol result was “No statistically significant differences”. Further, in the series on LDLR−/− mice (5 h-fasted), the “serum free fatty acids” value is recorded as “No statistically significant differences”, the serum insulin entry is given as “No statistically significant differences”, the serum leptin entry is reported as “No statistically significant differences” and the serum triglycerides result was “No statistically significant differences”.

Source of the values: patent publication US20260365696A1, “INHIBITORS OF PTP1B / NCK1 INTERACTION AND METHODS OF MAKING AND USING SAME” (Radella Pharmaceuticals LLC, priority 2023, published 2026).
